pIC50, pKd: −log10 of the molar value. Where two headings read alike, the source gives them in different places.
Tests used:
[1] = tested on: PC-9 cells (EGFR Ex19Del); experiment: Potency Assay: pERK (SOS1 pERK IC50 Assay, AlphaLISA SureFire Ultra p-ERK1/2); format: cell-based; details: Homo sapiens, read-out: SOS1 pERK IC50
Outline: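 PC-9 (EGFR Ex19Del) cells plated overnight, then treated 1 h at 37° C. with 10-point 3-fold dilutions (top 10 μM final) in duplicate. Lysate pERK1/2 measured by AlphaLISA SureFire Ultra; IC50 from 4-parameter sigmoidal fit.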

[2] = biological target: T1, SOS1 catalytic domain (residues 564-1049) (Homo sapiens, UniProt Q07889); experiment: Potency Assay: binding affinity to SOS1 using Surface Plasmon Resonance (SPR); design: SOS1 catalytic domain (residues 564-1049) immobilized on a sensor chip; details: immobilized SOS1 catalytic domain (residues 564-1049), read-out: SOS1 SPR Equilibrium Kd
T1 sequence (Q07889 564-1049): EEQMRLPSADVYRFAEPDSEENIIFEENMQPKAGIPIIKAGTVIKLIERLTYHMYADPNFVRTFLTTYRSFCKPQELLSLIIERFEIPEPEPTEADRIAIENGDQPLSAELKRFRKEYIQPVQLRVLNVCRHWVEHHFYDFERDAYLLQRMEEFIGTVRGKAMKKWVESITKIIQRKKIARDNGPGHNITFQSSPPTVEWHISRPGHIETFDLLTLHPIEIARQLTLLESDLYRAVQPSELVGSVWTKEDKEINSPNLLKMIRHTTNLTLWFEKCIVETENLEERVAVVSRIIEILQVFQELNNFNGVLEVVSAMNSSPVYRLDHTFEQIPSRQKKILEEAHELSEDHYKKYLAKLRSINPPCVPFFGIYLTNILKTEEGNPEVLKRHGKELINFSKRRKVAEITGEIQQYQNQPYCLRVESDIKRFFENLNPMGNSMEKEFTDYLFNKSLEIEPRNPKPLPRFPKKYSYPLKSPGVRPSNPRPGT
Outline: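 Avi-tagged SOS1 catalytic domain captured on streptavidin chip (~6000 RU) in 0.01 M HEPES, 0.15 M NaCl, 0.05% P20. Compound dilution series flowed at 50 μL/min for association, then buffer for dissociation, with double reference subtraction. Kd derived from end-of-association binding response plotted against concentration.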

[3] = biological target: T1, SOS1 catalytic domain (residues 564-1049); experiment: Mode of Action Assay: inhibition of SOS1 nucleotide exchange activity (SOS1 TR-FRET IC50 Assay)
Experimental: The purpose of this assay was to characterize the inhibitory activity of compounds on SOS1 nucleotide exchange of KRAS. Data was reported as IC50 values based on the TR-FRET signal.
Note—the following protocol describes a procedure for monitoring the inhibition of SOS1 nucleotide exchange activity of wild-type KRAS in response to a compound of the invention.
The SOS1/compound mixture was incubated at room temperature with constant mixing on an orbital shaker for 20 minutes to allow the reaction to reach equilibrium. […] This mixture was prepared immediately before addition to the SOS1/compound mixture to prevent intrinsic nucleotide exchange. Then 5 μL of the pre-incubated SOS1/compound mixture and 7.5 μL of the KRAS mixture were added sequentially in a 384-well low volume black round bottom plate and incubated at room temperature with constant shaking for 30 minutes. Time-resolved fluorescence was measured on a PerkinElmer Envision plate reader.
Three replicates were performed for each compound. Data were normalized by the following: (Positive control−Sample signal)/(Positive control−negative control)*100. The data were fit using a four-parameter logistic fit.

[4] = PC-9 cells (EGFR Ex19Del), 1 hour incubation, AlphaLISA p-ERK1/2

Structure (SMILES) | pIC50 [1, 4] | pKd [2] | pIC50 [3] | pIC50 ([1]; PC-9, 1 h)
C[C@@H](Nc1nc(Cl)nc2c1CN(C(=O)N1CCNCC1c1cccnc1)C2)c1cccc(C(F)F)c1F (stereo partly drawn) [Example 386] | > 6.00 | > 6.40 | > 6.00 | 
O=C(N1CCOCC1)N1Cc2nc(Cl)nc(NC(CF)c3cccc(C(F)(F)CO)c3)c2C1 (stereo not drawn) [Example 463, (2-chloro-4-((1-(3-(1,1-difluoro-2-hydroxyethyl)phenyl)-2-fluoroethyl)amino)-5,7-dihydro-6H-pyrrolo[3,4-d]pyrimidin-6-yl)(morpholino)methanone] | < 6.00 | > 6.40 | > 6.00 | 
C[C@@H](Nc1nc(Cl)nc2c1CN(C(=O)N1CCNCC(F)(F)C1)C2)c1cccc(C(F)F)c1F [Example 402] | > 6.00 | > 6.40 | > 6.00 | 
C[C@@H](Nc1nc(Cl)nc2c1CN(C(=O)c1ccc(N3CCOCC3)cn1)C2)c1cc(N)cc(C(F)(F)F)c1 [Example 84] | > 6.00 | > 6.40 | < 6.00 | 
C[C@@H](Nc1nc(Cl)nc2c1CN(S(=O)(=O)C1CCOCC1)CC2)c1cc(N)cc(C(F)(F)F)c1 [Example 455] | > 6.00 | > 6.40 | > 6.00 | 
C[C@@H](Nc1nc(Cl)nc2c1CN(C(=O)C1COCCN(C)C1)C2)c1cccc(C(F)F)c1F (stereo partly drawn) [Example 320] | > 6.00 | > 6.40 | > 6.00 | 
C[C@@H](Nc1nc(Cl)nc2c1C[C@H](N1CCOCC1)CC2)c1cccc(C(F)(F)CO)c1 [Example 437] | > 6.00 | > 6.40 | > 6.00 | 
COC1(C(=O)N2Cc3nc(Cl)nc(N[C@H](C)c4cccc(C(F)F)c4F)c3C2)CCOCC1 [Example 330] | > 6.00 | > 6.40 | > 6.00 | 
C[C@@H](Nc1nc(Cl)nc2c1CN(C(=O)N1CC3CCC(C1)N3C1COC1)C2)c1cccc(C(F)F)c1F [Example 423] | > 6.00 | > 6.40 | > 6.00 | 
C[C@@H](Nc1nc(C(F)F)nc2c1CN(C(=O)N1CCOCC1)C2)c1cc(N)cc(C(F)(F)F)c1 [Example 132, N-[(1R)-1-[3-amino-5-(trifluoromethyl)phenyl]ethyl]-2-(difluoromethyl)-6-(morpholine-4-carbonyl)-5H,6H,7H-pyrrolo[3,4-d]pyrimidin-4-amine] | > 6.00 | > 6.40 | > 6.00 | 
C[C@@H](Nc1nc(Cl)nc2c1CN(C(=O)N1C[C@@H]3C[C@H]1CN3)C2)c1cccc(C(F)F)c1F [Example 399] | < 6.00 | > 6.40 | > 6.00 | 
C[C@@H](Nc1nc(Cl)nc2c1CN(C(=O)C1(C#N)CCOCC1)C2)c1cc(N)cc(C(F)(F)F)c1 [Example 255] | > 6.00 | > 6.40 | > 6.00 | 
CC(Nc1nc(Cl)nc2c1CN(C(=O)N1CCOCC1)C2)c1ccc(-c2ccccc2CO)s1 (stereo not drawn) [Example 53, [2-chloro-4-[1-[5-[2-(hydroxymethyl)phenyl]-2-thienyl]ethylamino]-5,7-dihydropyrrolo[3,4-d]pyrimidin-6-yl]-morpholino-methanone] | < 6.00 | < 6.40 | < 6.00 | 
C[C@@H](Nc1nc(Cl)nc2c1CN(C(=O)N1CC3CC(C1)N3C)C2)c1cccc(C(F)F)c1F [Example 420] | > 6.00 | > 6.40 | > 6.00 | 
C[C@@H](Nc1nc(Cl)nc2c1CN(C(=O)C13CCN(CC1)CC3)C2)c1cccc(C(F)F)c1F [Example 313] | > 6.00 | > 6.40 | > 6.00 | 
C[C@@H](Nc1nc(Cl)nc2c1CN(C(=O)OC1CCOCC1)C2)c1cc(N)cc(C(F)(F)F)c1 [Example 115, oxan-4-yl 4-{[(1R)-1-[3-amino-5-(trifluoromethyl)phenyl]ethyl]amino}-2-chloro-5H,6H,7H-pyrrolo[3,4-d]pyrimidine-6-carboxylate] |  | > 6.40 | < 6.00 | > 6.00
C[C@@H](Nc1nc(Cl)nc2c1CN(C(=O)[C@H]1COCCN1)C2)c1cccc(C(F)F)c1F [Example 304] | < 6.00 | > 6.40 | > 6.00 | 
C[C@@H](Nc1nc(Cl)nc2c1CN(C(=O)C1CCN(C3COC3)CC1)C2)c1cccc(C(F)F)c1F [Example 336] | < 6.00 | > 6.40 | > 6.00 | 
C[C@@H](Nc1nc(Cl)nc2c1CN(S(=O)(=O)N1CCNCC1)CC2)c1cc(N)cc(C(F)(F)F)c1 [Example 183] | > 6.00 | > 6.40 | > 6.00 | 
CC(=O)N1CCN(C(=O)N2Cc3nc(Cl)nc(N[C@H](C)c4cccc(C(F)(F)F)c4)c3C2)CC1 [Example 381] | > 6.00 | > 6.40 | > 6.00 | 
C[C@@H](Nc1nc(Cl)nc2c1CN(C(=O)[C@]13CN[C@H](CO1)C3)C2)c1cccc(C(F)F)c1F [Example 290] | > 6.00 | > 6.40 | > 6.00 | 
CNc1nc2c(c(N[C@H](C)c3cccc(C(F)F)c3F)n1)CN(C(=O)N1CCOCC1)C2 [Example 505, N4-[(1R)-1-[3-(difluoromethyl)-2-fluorophenyl]ethyl]-N2-methyl-6-(morpholine-4-carbonyl)-5H,6H,7H-pyrrolo[3,4-d]pyrimidine-2,4-diamine] | < 6.00 | < 6.40 | < 6.00 | 
C[C@@H](Nc1nc(CN2CCOCC2)nc2c1CN(C(=O)N1CCOCC1)C2)c1cccc(C(F)F)c1F [Example 539] | < 6.00 | < 6.40 | > 6.00 | 
C[C@@H](Nc1nc(Cl)nc2c1CN(C(=O)C1(O)COC1)C2)c1cccc(C(F)F)c1F [Example 300] | > 6.00 | > 6.40 | > 6.00 | 
C[C@@H](Nc1nc(Cl)nc2c1CN(C(=O)C(C)(C)C)C2)c1cc(N)cc(C(F)(F)F)c1 [Example 274] | > 6.00 | > 6.40 | > 6.00 | 
C[C@@H](Nc1nc(Cl)nc2c1CN(C(=O)N1CCOCC1)C2)c1cccc(C(F)(F)C2COCCN2)c1 (stereo partly drawn) [Example 538, (2-chloro-4-(((1R)-1-(3-(difluoro(morpholin-3-yl)methyl)phenyl)ethyl)amino)-5,7-dihydro-6H-pyrrolo[3,4-d]pyrimidin-6-yl)(morpholino)methanone] | < 6.00 | > 6.40 | > 6.00 | 
C[C@@H](Nc1nc(Cl)nc2c1CN(C(=O)C1(F)CCN(C)CC1)C2)c1cccc(C(F)F)c1F [Example 326] | > 6.00 | > 6.40 | > 6.00 | 
C[C@@H](Nc1nc(Cl)nc2c1CN(C(=O)C1(C)CN(C)C1)C2)c1cc(N)cc(C(F)(F)F)c1 [Example 265] | > 6.00 | > 6.40 | > 6.00 | 
C[C@@H](Nc1nc(Cl)nc2c1CN(C(=O)N1CCOCC1)C2)c1cccc(C(F)F)c1Cl [Example 522, 2-chloro-N-[(1R)-1-[2-chloro-3-(difluoromethyl)phenyl]ethyl]-6-(morpholine-4-carbonyl)-5H,6H,7H-pyrrolo[3,4-d]pyrimidin-4-amine] |  | > 6.40 | > 6.00 | > 6.00
C[C@@H](Nc1nc(Cl)nc2c1CN(C(=O)N1CCOCC1)C2)c1cccc2c1COCC2(F)F [Example 523, 2-chloro-N-[(1R)-1-(4,4-difluoro-3,4-dihydro-1H-2-benzopyran-8-yl)ethyl]-6-(morpholine-4-carbonyl)-5H,6H,7H-pyrrolo[3,4-d]pyrimidin-4-amine] |  | > 6.40 | > 6.00 | > 6.00
